Reference: the NIST ThermoML archive (doi:10.1021/acs.jced.8b00201)

Key:
[1] = 100 kPa, Liquid; for viscosity: Concentric cylinders viscometry; for mass density: Vibrating tube method
[2] = xn = mol fraction of the nth substance listed; details: 100 kPa, Liquid; for viscosity: Concentric cylinders viscometry; for mass density: Vibrating tube method

O=C1CCCCC1 [cyclohexanone]
[1]
Details | mass density [kg/m3] | viscosity [mPa·s]
293.15 K | 948.8 | 2.3
298.15 K | 943.1 | 2.09
303.15 K | 938.2 | 1.91
308.15 K | 933.5 | 1.75
313.15 K | 928.8 | 1.6
318.15 K | 924.4 | 1.46
323.15 K | 920.7 | 1.34

O=C1CCCCC1 [cyclohexanone] + CCCCCCCCCO
[2], x1 = 1
Details | mass density [kg/m3] | viscosity [mPa·s]
293.15 K | 948.8 | 2.3
298.15 K | 943.1 | 2.09
303.15 K | 938.2 | 1.91
308.15 K | 933.5 | 1.75
313.15 K | 928.8 | 1.6
318.15 K | 924.4 | 1.46
323.15 K | 920.7 | 1.34

O=C1CCCCC1 [cyclohexanone] + CCCCCCCO
[2], x1 = 1
Details | mass density [kg/m3] | viscosity [mPa·s]
293.15 K | 948.8 | 2.3
298.15 K | 943.1 | 2.09
303.15 K | 938.2 | 1.91
308.15 K | 933.5 | 1.75
313.15 K | 928.8 | 1.6
318.15 K | 924.4 | 1.46
323.15 K | 920.7 | 1.34

CCCCCCCCCCO [decan-1-ol]
[1]
Details | mass density [kg/m3] | viscosity [mPa·s]
293.15 K | 829.5 | 14.42
298.15 K | 826.1 | 11.8
303.15 K | 822.7 | 9.76
308.15 K | 819.3 | 8.14
313.15 K | 815.8 | 6.84
318.15 K | 812.4 | 5.8
323.15 K | 808.9 | 4.96

CCCCCCCCCCO [decan-1-ol] + O=C1CCCCC1
[2], x2 = 0
Details | mass density [kg/m3] | viscosity [mPa·s]
293.15 K | 829.5 | 14.42
298.15 K | 826.1 | 11.8
303.15 K | 822.7 | 9.76
308.15 K | 819.3 | 8.14
313.15 K | 815.8 | 6.84
318.15 K | 812.4 | 5.8
323.15 K | 808.9 | 4.96

CCCCCCCO [heptan-1-ol]
[1]
Details | mass density [kg/m3] | viscosity [mPa·s]
293.15 K | 822.2 | 7.03
298.15 K | 818.7 | 5.92
303.15 K | 815.2 | 5.03
308.15 K | 811.6 | 4.3
313.15 K | 808 | 3.71
318.15 K | 804.4 | 3.21
323.15 K | 800.7 | 2.79

CCCCCCO [hexan-1-ol]
[1]
Details | mass density [kg/m3] | viscosity [mPa·s]
293.15 K | 818.7 | 5.37
298.15 K | 815.1 | 4.58
303.15 K | 811.5 | 3.94
308.15 K | 807.9 | 3.4
313.15 K | 804.2 | 2.95
318.15 K | 800.6 | 2.58
323.15 K | 796.8 | 2.26

CCCCCCO [hexan-1-ol] + O=C1CCCCC1
[2], x2 = 0
Details | mass density [kg/m3] | viscosity [mPa·s]
293.15 K | 818.7 | 5.37
298.15 K | 815.1 | 4.58
303.15 K | 811.5 | 3.94
308.15 K | 807.9 | 3.4
313.15 K | 804.2 | 2.95
318.15 K | 800.6 | 2.58
323.15 K | 796.8 | 2.26

CCCCCCCCCO [nonan-1-ol]
[1]
Details | mass density [kg/m3] | viscosity [mPa·s]
293.15 K | 827.5 | 11.41
298.15 K | 824 | 9.43
303.15 K | 820.5 | 7.86
308.15 K | 817.1 | 6.61
313.15 K | 813.6 | 5.6
318.15 K | 810.1 | 4.78
323.15 K | 806.5 | 4.1

CCCCCCCCO [octan-1-ol]
[1]
Details | mass density [kg/m3] | viscosity [mPa·s]
293.15 K | 824.9 | 9.13
298.15 K | 821.4 | 7.62
303.15 K | 817.9 | 6.41
308.15 K | 814.4 | 5.43
313.15 K | 810.9 | 4.63
318.15 K | 807.3 | 3.98
323.15 K | 803.7 | 3.4

CCCCCCCCO [octan-1-ol] + O=C1CCCCC1
[2], x2 = 0
Details | mass density [kg/m3] | viscosity [mPa·s]
293.15 K | 824.9 | 9.13
298.15 K | 821.4 | 7.62
303.15 K | 817.9 | 6.41
308.15 K | 814.4 | 5.43
313.15 K | 810.9 | 4.63
318.15 K | 807.3 | 3.98
323.15 K | 803.7 | 3.4

CCCCCO [pentan-1-ol]
[1]
Details | mass density [kg/m3] | viscosity [mPa·s]
293.15 K | 814.5 | 4.03
298.15 K | 810.8 | 3.49
303.15 K | 807.1 | 3.04
308.15 K | 803.3 | 2.65
313.15 K | 799.6 | 2.32
318.15 K | 795.8 | 2.05
323.15 K | 792 | 1.81

CCCCCO [pentan-1-ol] + O=C1CCCCC1
[2], x2 = 0
Details | mass density [kg/m3] | viscosity [mPa·s]
293.15 K | 814.5 | 4.03
298.15 K | 810.8 | 3.49
303.15 K | 807.1 | 3.04
308.15 K | 803.3 | 2.65
313.15 K | 799.6 | 2.32
318.15 K | 795.8 | 2.05
323.15 K | 792 | 1.81
